Test results: patent publication US20260285857A1, “BICYCLIC AND HETEROCYCLIC AMIDE COMPOUNDS” (priority 2024, published 2026)

Test system: immunoglobulin light chain protein WIL-FL T46L
Test: Differential scanning fluorimetry (thermal shift) assay
Assay type: binding
Details: temperature shift [Tm]compound-[Tm]vehicle, recombinant WIL-FL T46L

SMILES | DSF (Table B) | DSF (Table A)
Cc1cc(N2CC[C@](C)(c3ccccc3)C2)cn2nc(C34CC(CO3)C4c3ncn[nH]3)nc12 (stereo partly drawn) [Compound 494] | ***** (>2.5° C.=*****) | –
Cc1cc(N2CC[C@](C)(c3ccccc3)C2)cn2nc(C(=O)NC3CCC(N4CC5C(C4)C5C(=O)O)C3)nc12 (stereo partly drawn) [Compound 365] | – | ***** (>2.5° C.=*****)
CNC(=O)C1C2COC1(c1nc3c(C)cc(N4CC[C@](C)(c5ccccc5)C4)cn3n1)C2 (stereo partly drawn) [Example 72] | – | ***** (>2.5° C.=*****)
Cc1cc(N2CC[C@](C)(c3cccc(F)c3)C2)cn2nc(C(=O)NC3CC4(C3)CC(N3CC5C(C3)C5C(=O)O)C4)nc12 (stereo partly drawn) [Compound 384] | – | ***** (>2.5° C.=*****)
Cc1cc(C2C3COC2(c2nc4c(C)cc(N5CC[C@](C)(c6ccccc6)C5)cn4n2)C3)[nH]n1 (stereo partly drawn) [Compound 484] | ***** (>2.5° C.=*****) | –
CNC(=O)c1nc2c(C)cc(N3CCC(C)(c4nccs4)C3)cn2n1 (stereo not drawn) [Compound 15, N,8-dimethyl-6-(3-methyl-3-(thiazol-2-yl)pyrrolidin-1-yl)-[1,2,4]triazolo[1,5-a]pyridine-2-carboxamide] | – | ***** (>2.5° C.=*****)
Cc1nc(C2C3(CNC(=O)CC(C)(C)C(=O)O)COC2(c2nc4c(C)cc(N5CC[C@](C)(c6ccccc6)C5)cn4n2)C3)n[nH]1 (stereo partly drawn) [Compound 586] | ***** (>2.5° C.=*****) | –
Cc1cc(N2CC[C@](C)(c3ccccc3)C2)cn2nc(C(=O)N3C[C@@H]4CN(c5cccc(C(=O)O)n5)C[C@]4(C)C3)nc12 [Compound 643] | ***** (>2.5° C.=*****) | –
Cc1nc(C2C3(C(=O)O)COC2(c2nc4c(C)cc(N5CC[C@](C)(c6ccccc6)C5)cn4n2)C3)n[nH]1 (stereo partly drawn) [Compound 1A, 5-(5-methyl-1H-1,2,4-triazol-3-yl)-1-(8-methyl-6-((R)-3-methyl-3-phenylpyrrolidin-1-yl)-[1,2,4]triazolo[1,5-a]pyridin-2-yl)-2-oxabicyclo[2.1.1]hexane-4-carboxylic acid] | – | ***** (>2.5° C.=*****)
COC(=O)C1CCN(C2CCC23CC(NC(=O)c2nc4c(C)cc(N5CC[C@](C)(c6ccccc6)C5)cn4n2)C3)CC1 (stereo partly drawn) [Compound 373] | – | ***** (>2.5° C.=*****)
Cc1cc(N2CC[C@](C)(c3ccccc3)C2)cn2nc(C(=O)NCC3(C(=O)O)CC3)nc12 [Compound 165] | – | ***** (>2.5° C.=*****)
CCS(=O)(=O)Nc1n[nH]c(C2C3(CNC(=O)CC(C)(C)C(=O)O)COC2(c2nc4c(C)cc(N5CC[C@](C)(c6ccccc6)C5)cn4n2)C3)n1 (stereo partly drawn) [Compound 547, 4-[[5-[3-(ethylsulfonylamino)-1H-1,2,4-triazol-5-yl]-1-[8-methyl-6-[(3R)-3-methyl-3-phenyl-pyrrolidin-1-yl]-[1,2,4]triazolo[1,5-a]pyridin-2-yl]-2-oxabicyclo[2.1.1]hexan-4-yl]methylamino]-2,2-dimethyl-4-oxo-butanoic acid] | ***** (>2.5° C.=*****) | –
Cc1cc(N2CC[C@](C)(c3ccccc3)C2)cn2nc(C34CC(CO3)C4Cn3cnn(C)c3=O)nc12 (stereo partly drawn) [Compound 89] | – | ***** (>2.5° C.=*****)
Cc1cc(N2CCC(C)(c3ccc(O)cc3)C2)cn2nc(C(=O)N3CC[C@@]4(CCN(c5cccc(C(=O)O)n5)C4)C3)nc12 (stereo partly drawn) [Compound 413] | – | **** (>1.5-2.5° C.=****)
Cc1cc(N2CC[C@](C)(c3ccccc3)C2)cn2nc(C34CC(CO3)C4Cn3cnc(C(N)=O)n3)nc12 (stereo partly drawn) [Compound 90] | – | **** (>1.5-2.5° C.=****)
Cc1cc(N2CC[C@](C)(c3ccccc3)C2)cn2nc(C(=O)NCC3(O)CN(c4cccc(C(=O)O)n4)C3)nc12 [Compound 613] | ***** (>2.5° C.=*****) | –
Cc1cc(N2CC[C@](C)(c3ccccc3)C2)cn2nc(C(=O)N3CC[C@@](C)(O)C3)nc12 [Compound 159] | – | ***** (>2.5° C.=*****)
Cc1nc(C2C3COC2(c2nc4c(C)cc(N5CC[C@](C)(c6ccccc6)C5)cn4n2)C3)cs1 (stereo partly drawn) [Compound 485] | ***** (>2.5° C.=*****) | –
Cc1cc(N2CC[C@](C)(c3ccccc3)C2)cn2nc(C(=O)N3C[C@@H]4C[C@H]3C4C(=O)O)nc12 (stereo partly drawn) [Compound 211] | – | ***** (>2.5° C.=*****)
Cc1cc(N2CC[C@](C)(c3ccccc3)C2)cn2nc(C(=O)NC3CCS(=N)(=O)C3)nc12 (stereo partly drawn) [Compound 147] | – | ***** (>2.5° C.=*****)
Cc1cc(N2CCC(C)(n3ccc(C(F)F)n3)C2)cn2nc(C(=O)N3CC[C@@]4(CCN(c5cccc(C(=O)O)n5)C4)C3)nc12 (stereo partly drawn) [Compound 735, 6-[(5R)-2-[6-[3-[3-(difluoromethyl)pyrazol-1-yl]-3-methyl-pyrrolidin-1-yl]-8-methyl-[1,2,4]triazolo[1,5-a]pyridine-2-carbonyl]-2,7-diazaspiro[4.4]nonan-7-yl]pyridine-2-carboxylic acid] | **** (>1.5-2.5° C.=****) | –
Cc1cc(N2CC[C@](C)(c3ccccc3)C2)cn2nc(C(=O)N3CC4CN(c5cccc(C(=O)O)n5)CC4(C(F)(F)F)C3)nc12 (stereo partly drawn) [Compound 249] | – | ***** (>2.5° C.=*****)
COc1ccc(N2CCC3(CCN(C(=O)c4nc5c(C)cc(N6CC[C@](C)(c7ccccc7)C6)cn5n4)C3)C2)nc1C(=O)O (stereo partly drawn) [Compound 625] | ***** (>2.5° C.=*****) | –
Cc1cc(N2CC(C)(C)C(C)(c3ccccc3)C2)cn2nc(C(=O)N3C[C@@H]4CN(c5cccc(C(=O)O)n5)C[C@@H]4C3)nc12 (stereo partly drawn) [Compound 298] | – | ** (>0.5-1 °C =**)

SMILES | DSF (Table B) | DSF (Table A)
Cc1cc(N2CC[C@](C)(c3ccccc3)C2)cn2nc(C(=O)NC3CC4(C3)CC(C(=O)O)C4)nc12 (stereo partly drawn) [Compound 112] | – | ***** (>2.5° C.=*****)
COC(=O)[C@]1(C)CCN(C(=O)c2nc3c(C)cc(N4CC[C@](C)(c5ccccc5)C4)cn3n2)C1 [Compound 125] | – | ***** (>2.5° C.=*****)
Cc1cc(N2CC[C@](C)(c3ccccc3)C2)cn2nc(C34CC(CO3)C4c3noc(=O)[nH]3)nc12 (stereo partly drawn) [Compound 13, 3-[1-[8-methyl-6-[(3R)-3-methyl-3-phenyl-pyrrolidin-1-yl]-[1,2,4]triazolo[1,5-a]pyridin-2-yl]-2-oxabicyclo[2.1.1]hexan-5-yl]-4H-1,2,4-oxadiazol-5-one] | – | ***** (>2.5° C.=*****)
Cc1cc(N2CC[C@](C)(c3ccccc3)C2)cn2nc(C(=O)N3CC[C@@]4(CCN(C(=O)C56CCC(C(=O)O)(CC5)OC6)C4)C3)nc12 [Compound 732] | ***** (>2.5° C.=*****) | –
Cc1cc(N2CC[C@](C)(c3ccccc3)C2)cn2nc(C34CC(CO3)C4N3CC4(CCOCC4)NC3=O)nc12 (stereo partly drawn) [Compound 522] | ***** (>2.5° C.=*****) | –
Cc1cc(C(=O)O)cc(N2CC[C@@]3(CCN(C(=O)c4nc5c(C)cc(N6CC[C@](C)(c7ccccc7)C6)cn5n4)C3)C2)n1 [Compound 729, 2-methyl-6-((R)-7-(8-methyl-6-((R)-3-methyl-3-phenylpyrrolidin-1-yl)-[1,2,4]triazolo[1,5-a]pyridine-2-carbonyl)-2,7-diazaspiro[4.4]nonan-2-yl)isonicotinic acid] | ***** (>2.5° C.=*****) | –
Cc1cc(N2CC[C@](C)(c3ccccc3)C2)cn2nc(C(=O)N3CCC4(CCN(c5nc(C(=O)O)nn5C)C4)C3)nc12 (stereo partly drawn) [Compound 234] | – | ***** (>2.5° C.=*****)
Cc1cc(N2CC[C@](C)(c3ccccc3)C2)cn2nc(C(=O)NC3CCC4(CCN(c5cccc(C(=O)O)n5)C4)C3)nc12 (stereo partly drawn) [Compound 245] | – | ***** (>2.5° C.=*****)
Cc1cc(N2CC[C@](C)(c3ccccc3)C2)cn2nc(C(=O)NC34CC(O)(C3)C4)nc12 [Compound 132] | – | ***** (>2.5° C.=*****)
Cc1cc(N2CC[C@](C)(c3ccccc3)C2)cn2nc(C34COC(C3)C4C(N)=O)nc12 (stereo partly drawn) [Compound 69] | – | **** (>1.5-2.5° C.=****)
CCOC(=O)Nc1n[nH]c(C2C3COC2(c2nc4c(C)cc(N5CC[C@](C)(c6ccccc6)C5)cn4n2)C3)n1 (stereo partly drawn) [Compound 551] | ***** (>2.5° C.=*****) | –
Cc1cc(N2CC[C@](C)(c3ccccc3)C2)cn2nc(C(=O)NC3CC4(C3)CN(C3CC(C)(C(=O)O)C3)C4)nc12 (stereo partly drawn) [Compound 371] | – | ***** (>2.5° C.=*****)
Cc1cc(N2CC[C@](C)(c3ccccc3)C2)cn2nc(C(=O)N3CC[C@]4(CCN(c5cc(C(=O)O)ccn5)C4)C3)nc12 [Compound 270] | – | ***** (>2.5° C.=*****)
Cc1cc(N2CC[C@](C)(c3ccccc3)C2)cn2nc(C(=O)NC3CCN(c4cccc(C(=O)O)n4)CC3)nc12 [Compound 276] | – | ***** (>2.5° C.=*****)
Cc1cc(N2CC[C@](C)(c3ccccc3)C2)cn2nc(C(=O)N3CC4CN(c5cccc(C(=O)O)n5)CC4(F)C3)nc12 (stereo partly drawn) [Compound 244] | – | ***** (>2.5° C.=*****)
Cc1cc(N2CC[C@](C)(c3ccccc3)C2)cn2nc(C(=O)NC3C4COCC43)nc12 (stereo partly drawn) [Compound 129] | – | ***** (>2.5° C.=*****)
COC(=O)C1CCN(C2COC23CC(NC(=O)c2nc4c(C)cc(N5CC[C@](C)(c6ccccc6)C5)cn4n2)C3)CC1 (stereo partly drawn) [Compound 360] | – | ***** (>2.5° C.=*****)
CC(C)(O)c1cc(N2CC[C@](C)(c3ccccc3)C2)cn2nc(C(=O)NC3CCN(c4cccc(C(=O)O)n4)CC3)nc12 [Compound 340] | – | ***** (>2.5° C.=*****)
Cc1cc(N2CC[C@](C)(c3ncco3)C2)cn2nc(C(=O)N3CC[C@@]4(CCN(c5cccc(C(=O)O)n5)C4)C3)nc12 [Compound 21, 6-((R)-7-(8-methyl-6-((S)-3-methyl-3-(oxazol-2-yl)pyrrolidin-1-yl)-[1,2,4]triazolo[1,5-a]pyridine-2-carbonyl)-2,7-diazaspiro[4.4]nonan-2-yl)picolinic acid] | – | *** (>1-1.5° C.=***)
Cc1cc(N2CC[C@](C)(c3ccccc3)C2)cn2nc(C(=O)N[C@@H]3CN(c4cccc(C(=O)O)n4)CC3(C)C)nc12 [Compound 683] | ***** (>2.5° C.=*****) | –
Cc1cc(N2CC[C@](C)(c3ccccc3)C2)cn2nc(C(=O)N3CC4=C(C3)CN(c3cccc(C(=O)O)n3)C4)nc12 [Compound 231] | – | ***** (>2.5° C.=*****)
Cc1cc(N2CC[C@](C)(c3ccccc3)C2)cn2nc(C(=O)N[C@@H]3CC[C@@H]3O)nc12 [Compound 161] | – | ***** (>2.5° C.=*****)
Cc1cc(N2CC[C@](C)(c3ccccc3)C2)cn2nc(C(=O)N[C@H]3CNC[C@@H]3C(=O)O)nc12 [Compound 134] | – | ***** (>2.5° C.=*****)
Cc1cc(N2CCC(C)(c3ccccc3F)C2)cn2nc(C(=O)N3CC[C@@]4(CCN(c5cccc(C(=O)O)n5)C4)C3)nc12 (stereo partly drawn) [Compound 426] | – | ***** (>2.5° C.=*****)
